Molecules are shown by their SMILES. pIC50, pKi: −log10 of the molar value.

In general, pIC50 refers to the IC50 on a negative log10 scale, so that one unit is a factor of ten. The pKi is the Ki on a negative log10 scale, so that one unit is a factor of ten.

Assay [1] in a line: Inhibition of Bacillus cereus II metallo-beta-lactamase using nitrocefin as substrate incubated for 5 mins by spectrophotometric analysis.
A short description of assay [2]: Inhibition of Metallo-beta-lactamase NDM-1 (unknown origin) expressed in Escherichia coli BL21 (DE3) assessed as substrate hydrolysis using imipenem as substrate by spectrometric analysis. Also on record: species or system Bacteria.
Assay [3] can be described thus: Inhibition of metallo-beta-lactamase IMP-1 (unknown origin) expressed in Escherichia coli BL21 (DE3) assessed as substrate hydrolysis using imipenem as substrate by spectrometric analysis. Also on record: species or system Bacteria.
The nature of assay [4]: Inhibition of metallo-beta-lactamase ImiS (unknown origin) expressed in Escherichia coli BL21 (DE3) assessed as substrate hydrolysis using imipenem as substrate by spectrometric analysis. Further details: species or system Bacteria.
The nature of assay [5]: Inhibition of Metallo-beta-lactamase NDM-1 in Escherichia coli BL21 (DE3) assessed as substrate hydrolysis using cefazolin as substrate preincubated for 20 hrs followed by substrate by spectrometric analysis.
Assay [6] in a line: Inhibition of wild type metallo-beta-lactamase IMP-1 (unknown origin) assessed as inhibition constant using nitrocefin as substrate preincubated with compound followed by substrate addition and measured for 60 sec by spectroscopic analysis. Also on record: species or system Bacteria.
Assay [7] can be described thus: Inhibition of Escherichia coli metallo-beta-lactamase NDM-1 assessed as substrate hydrolysis using cefazolin as substrate preincubated for 12 hrs followed by substrate by UV-Vis spectrophotometric analysis.
A short description of assay [8]: Inhibition of Metallo-beta-lactamase NDM-1 in Escherichia coli BL21 assessed as inhibition constant using nitrocefin as substrate preincubated for 20 mins followed by substrate and measured after 30 mins by spectrophotometric analysis.

`C[C@@H](NC(=O)c1ccccc1)C(=O)SCC(=O)O` showed a pIC50 in assay [1] of 3.19.
In the case of `CCCCN(CCCC)C(=S)SSC(=S)N(CCCC)CCCC`, the pIC50 in assay [2] is 6.59; in assay [3] it was 6.28; in assay [4], 5.74.
For `O=c1c2ccccc2sn1-c1ccccc1`, the pIC50 in assay [5] is 6.80.
Regarding `O=C(CCSC(=O)CCS)Oc1c(F)c(F)c(F)c(F)c1F`, in assay [6], the pKi is 6.38.
On the same count and under the same terms, the same measure for `O=C(CCS)Oc1c(F)c(F)c(F)c(F)c1F`: 5.46.
As for `C[C@@H](NC(=O)Cc1ccccc1)C(=O)SCC(=O)O`, the pIC50 in assay [1] is 3.32.
Turning to `S=C(SSC(=S)N(Cc1ccccc1)Cc1ccccc1)N(Cc1ccccc1)Cc1ccccc1` [BIS(DIBENZYLAMINETHIOCARBONYL)DISULFIDE], the negative-log IC50 (pIC50) was 6.49 in assay [2], 5.77 in assay [3] and 5.59 in assay [4].
In the same order, the values of `S=C(SSC(=S)N1CCCCC1)N1CCCCC1` [BIS(PIPERIDINYLTHIOCARBONYL)DISULFIDE] are 6.85, 6.06 and 6.31.
In the same order, the values of `S=C(SSC(=S)N1CCCC1)N1CCCC1` [BIS(PYRROLIDINYLTHIOCARBONYL)DISULFIDE] are 6.92, 6.02 and 5.43.
On to `O=C(O)C(=O)CBr` [BROMOPYRUVATE], for which the pIC50 in assay [7] is 5.59.
Turning to `CCN(CC)C(=S)SSC(=S)N(CC)CC` [DISULFIRAM], the pIC50 was 6.89 in assay [2], 5.54 in assay [3] and 5.44 in assay [4].
As for `O=c1c2ccccc2[se]n1-c1ccccc1` [EBSELEN], in assay [8], the negative logarithm of the Ki (pKi) was 6.42.

Values taken from ChEMBL document CHEMBL5230097, “Structure-based design of covalent inhibitors targeting metallo-β-lactamases” (Eur J Med Chem, 2020).
